Test [1] relates to NFE2L1-dependent gene expression. Kind of test: Quantitative RT-PCR of NFE2L1-dependent genes in HEK293 cells. Particulars: 7.5 μM, 16 h; for DNAJA1 mRNA, geometric mean (treatment) / HSPA1A mRNA, geometric mean (treatment) / NQO1 mRNA, geometric mean (treatment) / PSMC4 mRNA, geometric mean (treatment) / PSMD12 mRNA, geometric mean (treatment) / SQSTM1 mRNA, geometric mean (treatment): HEK293, normalized to RPLP0, DMSO control = 1; for DNAJA1 mRNA, geometric mean of ratios / HSPA1A mRNA, geometric mean of ratios / NQO1 mRNA, geometric mean of ratios / PSMC4 mRNA, geometric mean of ratios / PSMD12 mRNA, geometric mean of ratios / SQSTM1 mRNA, geometric mean of ratios: treatment/control, ratio paired t test, HEK293. It counts as cell-based, human. Here is the method: NFE2L1 enhances the transcription of genes encoding proteasome subunits and molecular chaperones such as heat shock proteins (HSPs). To evaluate whether this effect is elicited by RUN compounds, we performed quantitative real-time PCR (RT-qPCR) analysis in HEK293 cells treated with selected RUN compounds (Fig. 2A).[28,53–55]
Fig. 2 (A) qPCRs of HEK293 cells treated with RUN compounds (7.5 μM) for 16 hours. The extracted RNA was reverse transcribed into cDNA and utilized for RT-qPCR (primers are listed in the SI, Table S1); the mRNA levels of RPLP0 were used for normalization. The experiment was performed in three biological replicates (n = 3). (B) Immunoblot analysis of proteins NFE2L1/TCF11/NRF1, SQSTM1/p62, LC3, NQO1 and HSPA1A/HSP70-1 in HEK293 cells after 16 h treatment with 7.5 μM RUN compounds. The protein levels were quantified by measuring the integrated fluorescence of the corresponding protein bands and normalized to the β-actin load. The full-length (F) and cleaved (C) forms of NFE2L1 were analyzed together. The experiment was performed in four biological replicates (n = 4) except for NFE2L1 (n = 3). (A and B) Results of RUN compounds were compared to the DMSO control using ratio paired t-tests corrected for multiple comparisons with Holm–Šídák's method (α = 0.05). *p < 0.05, **p < 0.01. Detailed results of the analysis are shown in SI Tables S5 and S6. […]
HEK-293 cells were seeded into 12 -well plates and allowed to adhere overnight under standard culture conditions. On the following day, cells were treated with the indicated test compounds or DMSO vehicle control for 16 h. After treatment, cells were lysed directly in the wells, and the resulting lysates were collected for downstream RNA extraction. RNA was extracted using the RNeasy® Plus Micro Kit according to the manufacturer’s instructions. Complementary DNA (cDNA) was synthesized from RNA using either t he TATAA GrandScript cDNA Supermix (TATAA Biocenter) or the QuantiTect® Reverse Transcription Kit (Qiagen), following the respective protocols. Quantitative RT -PCR was performed on a LightCycler® 480 instrument (Roche Life Science) using the TATAA SYBR® Gr andMaster® Mix (TATAA […]
Biocenter). Gene expression levels were normalized to RPLP0, and relative expression was calculated using the ΔΔCt method. Data were expressed as fold change relative to the corresponding DMSO control. Statistical analysis of changes in gene expression was performed w ith a ratio paired t-test corrected for multiple comparisons using Holm-Šídák's method (α = 0.05) in GraphPad Prism (v 10.6.1).
Table S1. Sequences of primer pairs used in the qRT -PCR analysis of gene expression.

In test [2] the test system is chymotrypsin-like activity of the 26S proteasome. The test is described as follows: Proteasome activity assay in SH-SY5Y cell lysates. Format: cell-based, human. Particulars: for Geometric mean, Treatment (Control = 1): SH-SY5Y, Figure S6. Here is the method: Building on previous findings, we investigated how selected RUN compounds influence proteasomal function itself. Specifically, we examined the chymotrypsin-like activity of the 26S proteasome following a 16 hour treatment with 7.5 μM RUN compounds in the HEK293 cell line. […] In addition, two other cell lines, MCF7 and SH-SY5Y, were measured (see the SI, Fig. S6).
Figure S6: RUN compounds enhance chymotrypsin-like activity of the 26S proteasome in […]
Cells were treated with 5 µM RUN compounds for 16 hours, with DMSO (0.5%) as the vehicle control. Proteasome chymotrypsin-like activity was measured in cell lysates at 37 °C. Four independent experiments were conducted. Statistical analysis was performed using ratio paired t-tests corrected for multiple comparisons with the Holm-Šídák's method (α = 0.05). Detailed results of the analysis are shown in Supplementary Table S16. […]
2.7 Proteasome activity assay
The corresponding cell lines (HEK293, MCF7, or SH-SY5Y) were seeded into 6-well plates and allowed to adhere overnight under standard culture conditions. On the following day, HEK293 cells were treated with 7.5 µM RUN compounds, whereas MCF7 and SH-SY5Y cells were treated with 5 µM RUN compounds, for 16 hours each. After treatment, cells were harvested, resuspended in lysis buffer (50 mM HEPES, pH 7.5; 5 mM EDTA; 150 mM NaCl; 2 mM ATP; 1% Triton), and centrifuged at 15,000 rpm for 15 minutes at 4 °C. The resulting lysates (25 µg total protein) were incubated with 200 µM of the fluorogenic substrate Suc-Leu-Leu-Val-Tyr-AMC (Bachem, I1395) in assay buffer (50 mM Tris, pH 8.0; 10 mM MgCl₂; 1 mM ATP; 1 mM DTT) at 37 °C. Free AMC release was detected by measuring fluorescence at 360/460 nm. Results of RUN compounds were compared to the DMSO control using a ratio paired t-test corrected for multiple comparisons with the Holm-Šídák's method (α = 0.05) in GraphPad Prism (v 10.6.1).
2.8 XBP1-endoplasmic reticulum (ER) stress reporter assay […]
Two sets of comparisons: 1) […]
treatment with MG132 inhibitor or RUN compounds with DMSO control, 2) RUN compounds vs MG132, were done by two-way repeated-measures ANOVA with Geisser–Greenhouse correction, followed by Dunnett’s multiple comparisons test with individual variances in […]
HCT116 parental cells (WT) and two independent DDI2 knockout clones (KO 04 and KO 11), in which NFE2L1 activation is impaired, were transiently transfected with plasmids encoding either a non-aggregating EGFP-HttQ23 or an aggregation-prone EGFP-HttQ74 construct using Lipofectamine 2000 (Thermo Fisher Scientific) according to the manufacturer’s

On to `COc1ccc(/C=C2\CC(NC(=O)C3CCCC3)C/C(=C\c3ccc(OC)c(OC)c3)C2=O)cc1OC` (stereo not drawn) [RUN-89], for which, in test [1], the “DNAJA1 mRNA, geometric mean (treatment)” value came out at 7.60; the “HSPA1A mRNA, geometric mean (treatment)” value worked out at 8.85; the “NQO1 mRNA, geometric mean (treatment)” value was found to be 2.73; the “PSMC4 mRNA, geometric mean (treatment)” value is given as 2.21. In test [1], the “PSMD12 mRNA, geometric mean (treatment)” value is 5.14; the “SQSTM1 mRNA, geometric mean (treatment)” value is 5.22; the “DNAJA1 mRNA, geometric mean of ratios” value worked out at 7.60; the “HSPA1A mRNA, geometric mean of ratios” value stood at 8.85. In addition, in test [1], the “NQO1 mRNA, geometric mean of ratios” value was 2.73; the “PSMC4 mRNA, geometric mean of ratios” value amounted to 2.21; the “PSMD12 mRNA, geometric mean of ratios” value is reported as 5.14; the “SQSTM1 mRNA, geometric mean of ratios” value came out at 5.22. For the same molecule, the “Proteasome chymotrypsin-like activity in SH-SY5Y cells” value in test [2] (5 μM, 16 h) is recorded as “higher median for RUN-89 without reaching statistical significance”. Also, in test [2], the “Geometric mean, Treatment (Control = 1)” value was determined as 1.88.

Turning to `COc1ccc(/C=C2\CC(NC(=O)c3ccccn3)C/C(=C\c3ccc(OC)c(OC)c3)C2=O)cc1OC` (stereo not drawn) [RUN-94], in test [1], the “DNAJA1 mRNA, geometric mean (treatment)” value worked out at 6.57; the “NQO1 mRNA, geometric mean (treatment)” value is on record as 2.85; the “PSMC4 mRNA, geometric mean (treatment)” value is recorded as 1.37; the “PSMD12 mRNA, geometric mean (treatment)” value was determined as 4.22. Moreover, in test [1], the “SQSTM1 mRNA, geometric mean (treatment)” value was 6.10; the “DNAJA1 mRNA, geometric mean of ratios” value was found to be 6.57; the “HSPA1A mRNA, geometric mean of ratios” value came out at 8.20; the “NQO1 mRNA, geometric mean of ratios” value came out at 2.85. Also, in test [1], the “PSMC4 mRNA, geometric mean of ratios” value is on record as 1.37; the “PSMD12 mRNA, geometric mean of ratios” value turned out to be 4.22; the “SQSTM1 mRNA, geometric mean of ratios” value stood at 6.10. The “Geometric mean, Treatment (Control = 1)” value in test [2] was 1.50.

As for `COc1ccc(/C=C2\CC(N)C/C(=C\c3ccc(OC)c(OC)c3)C2=O)cc1OC` (stereo not drawn) [RUN-81], in test [1], the “DNAJA1 mRNA, geometric mean (treatment)” value is given as 3.68; the “HSPA1A mRNA, geometric mean (treatment)” value is recorded as 8.57; the “NQO1 mRNA, geometric mean (treatment)” value was 2.23; the “PSMC4 mRNA, geometric mean (treatment)” value came to 4.76. In addition, in test [1], the “PSMD12 mRNA, geometric mean (treatment)” value is 3.37; the “SQSTM1 mRNA, geometric mean (treatment)” value is given as 4.15; the “DNAJA1 mRNA, geometric mean of ratios” value was found to be 3.68; the “HSPA1A mRNA, geometric mean of ratios” value is 8.57. In addition, in test [1], the “NQO1 mRNA, geometric mean of ratios” value amounted to 2.23; the “PSMC4 mRNA, geometric mean of ratios” value was determined as 4.76; the “PSMD12 mRNA, geometric mean of ratios” value is listed as 3.37; the “SQSTM1 mRNA, geometric mean of ratios” value is 4.15. For the same molecule, the “Geometric mean, Treatment (Control = 1)” value in test [2] was 1.28.

These data come from article PMC12606464, “Investigating NFE2L1 activators for targeted protein aggregate clearance: a follow-up study” (RSC Medicinal Chemistry, 2025).
